Drawing on paper PMC7555427, “Discovery of Icotinib-1,2,3-Triazole Derivatives as IDO1 Inhibitors” (Frontiers in Pharmacology, 2020), this text covers IC50 for two compounds.

Assay [1] deals with IDO1. Set-up: method as in Nelp et al., 2018. The settings on record: previously reported; ref Nelp et al., 2018; cited from earlier work.
Assay [2] deals with Human renal epithelial cell (293T). Kind of assay: Cytotoxicity assay, Cell Counting Kit-8 (CCK8), 72 h. To be noted: HEK-293T, 293T cells, CCK-8, 72 h. It is filed as cell-based. Here is the method: Cytotoxity of the chosen compounds was evaluated by the Cell Counting Kit-8 (CCK8, DOJINDO, Japan) assay. The cells were seeded at a density of 2,000 cells per well into 96-well microplate in 100 μl of growth medium. Cells were incubated at 37°C and 5% CO2 overnight. The next day, 100 μl per well of diluted inhibitor in growth medium was added with the final concentration from 0.1nM to 100 μM. The cells were treated with DMSO as control. A series of dilutions were made in 0.1% DMSO in assay medium so that the final concentration of DMSO was 0.1% in all the treatments. Cells were incubated at 37°C and 5% CO2 for 72 h. Then, 10 μl of CCK8 was added to each well. The plates were incubated at 37°C for 2 h, and the plates were recorded by measuring the absorbance at 450 nm with the reference wavelength of 630 nm using an EnVisionMultilabel Reader (PerkinElmer). The IC50 values were calculated and determined by the concentration causing a half-maximal percent activity. All assays were conducted with three parallel samples and three repetitions.
Next, several compounds with submicromolar level of IDO1 inhibitory activities were chosen for further study. Human renal epithelial cell (293T) was chosen for CCK-8 assay to evaluation the bioactivity of these compounds.
(Tetrazolium assays rely on reduction of a dye to a coloured formazan, in cell work by metabolically active cells.)

The target of assay [3] is T1, IDO1 (Homo sapiens, UniProt P14902).
T1 construct: host or cells: HeLa cells, IDO1 induced with 100 ng/ml human IFN-γ
Kind of assay: Hela cell-based IDO1 functional assay (kynurenine readout, IFN-γ induced). The settings on record: Hela cells, 100 ng/ml human IFN-γ, 18 h; Table 1 and text. Here is the method:
To perform the Hela cell based IDO1 assay, Hela cells were seeded at 50,000 cells per well into 96-well microplate in 100 μl of DMEM 10% fetal bovine serum 1% Penicillin-Streptomycin. Cells were incubated at 37°C and 5% CO2 overnight.
The next day 100 μl per well of diluted inhibitor in growth medium was added at a final concentration of 100 ng/ml human IFN-γ. Cells were incubated at 37°C in a CO2 incubator for 18 h. The next day 140 μl of medium was moved into a new 96-well plate and 20 μl of 3.05 N trichloroacetic acid (TCA) was added. The plate was incubated at 50°C for 30 min to hydrolyze N-formylkynurenine. The plate was then centrifuged at 2,500 rpm for 10 min to remove sediments. 100 μl of supernatant per well was transferred to another 96-well plate and mixed with 100 μl of 2% (w/v) 4-(Dimethylamino)benzaldehyde in acetic acid. The plate was incubated at room temperature for 10 min, the yellow color derived from kynurenine was recorded by measuring absorbance at 480 nm using a microplate reader (PerkinElmer, USA).
To investigate the IDO1 inhibition activities of the synthesized derivatives, all the new compounds and icotinib were screened via Hela cell-based functional assay using methods described in the literature ([Yue et al., 2009]; [Malachowski et al., 2016]; [Qian et al., 2016]).

`C[C@@H](C(=O)Nc1ccc(Cl)cc1)C1CCC(c2ccnc3ccc(F)cc23)CC1` (stereo partly drawn) [BMS-986205]: in the assay with IDO1 [1], the 50% inhibitory concentration (IC50) is […].

T1 sequence (P14902 whole entry): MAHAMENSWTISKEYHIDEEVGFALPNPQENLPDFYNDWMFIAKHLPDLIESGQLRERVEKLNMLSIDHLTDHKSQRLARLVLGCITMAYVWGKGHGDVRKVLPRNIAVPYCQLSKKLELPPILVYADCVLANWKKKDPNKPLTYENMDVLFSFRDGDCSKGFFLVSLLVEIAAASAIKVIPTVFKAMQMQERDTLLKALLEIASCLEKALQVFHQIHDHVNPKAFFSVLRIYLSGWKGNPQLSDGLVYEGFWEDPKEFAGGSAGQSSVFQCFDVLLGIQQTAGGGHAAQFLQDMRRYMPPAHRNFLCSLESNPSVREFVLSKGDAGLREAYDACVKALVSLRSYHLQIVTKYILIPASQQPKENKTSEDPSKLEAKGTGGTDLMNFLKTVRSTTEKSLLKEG

For the compound `Clc1cccc(-n2cc(-c3cccc(Nc4ncnc5cc6c(cc45)OCCOCCOCCO6)c3)nn2)c1` [a7, {3-[1-(3-Chloro-phenyl)-1H-[1,2,3]triazol-4-yl]-phenyl}-(7,8,10,11,13,14-hexahydro-6,9,12,15-tetraoxa-1,3-diaza-cyclododeca[b]naphthalen-4-yl)-amine], the IC50 in assay [2] worked out at 3.1 ± 0.2 µM; on IDO1 [3] it was 2.82 ± 0.26 µM.

Usually IC50 stands for the concentration needed to halve the response being measured.
